Target: T1, muscarinic M3 receptor (Homo sapiens, UniProt P20309)
T1 construct: using HEK293 cells which express the receptor endogenously; endogenous in cells; host or cells: HEK293
Assay: Antagonist activity on muscarinic M3 receptor, FLIPR Tetra calcium assay in HEK293 cells
Format: cell-based
Conditions: antagonist mode versus carbachol at its EC50, HEK293 cells, calcium fluorescence

T1 sequence (P20309 whole entry): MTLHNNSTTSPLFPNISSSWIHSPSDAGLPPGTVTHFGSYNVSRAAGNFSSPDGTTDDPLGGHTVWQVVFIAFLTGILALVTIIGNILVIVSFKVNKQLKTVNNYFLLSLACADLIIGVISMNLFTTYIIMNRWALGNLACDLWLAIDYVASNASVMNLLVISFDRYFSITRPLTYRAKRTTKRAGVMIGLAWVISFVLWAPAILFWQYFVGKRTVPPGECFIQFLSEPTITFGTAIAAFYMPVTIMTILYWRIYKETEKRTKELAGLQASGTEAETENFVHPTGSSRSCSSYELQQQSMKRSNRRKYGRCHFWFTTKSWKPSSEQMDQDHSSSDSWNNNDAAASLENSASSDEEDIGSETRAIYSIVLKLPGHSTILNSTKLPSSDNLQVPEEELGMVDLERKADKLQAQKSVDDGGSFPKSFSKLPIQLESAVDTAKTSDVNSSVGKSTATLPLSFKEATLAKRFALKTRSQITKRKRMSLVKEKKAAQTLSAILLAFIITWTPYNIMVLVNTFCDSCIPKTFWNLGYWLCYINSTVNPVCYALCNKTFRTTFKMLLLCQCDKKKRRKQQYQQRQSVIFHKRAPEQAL

Vitamin E [Vitamin E (as in Example 1)]
IC50: >1 µg/mL

— patent US12109246B2, “Composition for the treatment and/or prevention of lower urinary tract symptoms” (SERELYS PHARMA S.A.M., priority 2019, dated 2024)
